Measured values from patent publication US20250073167A1, “A POLYMER TO INCREASE THE BIOAVAILABILITY OF A PHARMACEUTICAL COMPOUND” (CATALYA, priority 2022, published 2025).

Assay: Oral delivery of fluorescein with 10 kDa polymer: bioavailability and recovery in blood, urine and feces
Assay type: in vivo, rat
Settings: ingestion
Experimental: Eighteen rats have been selected and have been given either no polymer (rats 1, 2, 10, 11), or the polymer (10 kDa) at a dose of 5 mg/kg (rats 13-15), 50 mg/kg (rats 4-6, 12, 16-18) or 300 mg/kg (rats 3 and 7-9). Fluorescein has been either covalently coupled to the polymer (rats 4-9 and 13-18; labelled as PO or IV in the figures), or physically (non-covalently) adhered to the polymer (rats 3 and 12); labelled as PO* or IV* in the figures.
The polymer has been administered either per ingestion (PO or PO*) or by injection (IV or IV*). Blood concentration of the polymer-fluorescein (FIG. 1), or of the (potentially-free) fluorescein (FIG. 2) has been measured in the blood, in the feces (FIG. 4) and in urine (FIG. 3).

O=C1OC2(c3ccc(O)cc3Oc3cc(O)ccc32)c2ccccc21 [free fluorescein, fluorescein]
ingested fluorescein found in the feces (rats (FIG. 4)): > 99% | ingested fluorescein internalized (rats, without the polymer): less than 1%
